The values below come from patent publication US20240124465A1, “MOLECULES AND METHODS RELATED TO TREATMENT OF DISORDERS ASSOCIATED WITH JAK-2 SIGNALING DYSFUNCTION” (ST. JUDE CHILDREN'S RESEARCH HOSPITAL, priority 2020, published 2024).

Usually EC50 stands for the concentration at which the effect is half-maximal.

Common to all, as to format: cell-based
Test [1] deals with T1, JAK1 (Homo sapiens, UniProt P23458).
T1 construct: endogenous in cells; host or cells: MHH-CALL-4
The test is described as follows: Western blot assay, JAK1 protein degradation. Conditions: MHH-CALL-4 cells, vehicle control = 100%. The protocol:
(§1) Western blot assay: MHH-CALL-4 Cells were washed twice with ice-cold PBS and lysed in RIPA lysis buffer (Sigma) freshly supplemented with Halt™ Protease Inhibitor Cocktail (ThermoFisher) for 15 minutes on ice. The cell pellet was removed by centrifugation at 13,000 g at 4° C. for 15 minutes. Protein concentration was measured by BCA assay (Thermo Fisher Scientific). Proteins were denatured in NuPAGE LDS 4× sample buffer supplemented with reducing agents (Invitrogen). Typically, 10-20 μg of total protein was loaded per lane on a 4%-12% NUPAGE Bis-Tris gradient gel (Invitrogen) and analyzed by standard immunoblotting and imaged using Li—COR Odyssey CLx (LI-COR Biotechnology, Lincoln, NE). To access the protein degradation, the signal of target protein was normalized by the signal of ACBT and the signal of vehicle control was set as 100%. Primary antibodies used were: JAK1 (Cell Signaling #3332S), JAK2 (#3230S), JAK3 (#8827S), TYK2 (#9312S), GSPT1 (#14980S), CRBN (#71810S), IKZF1 (Santa Cruz Biotechnology, SC-398265) and ACBT (Santa Cruz Biotechnology, SC-47778).
(In western blotting, separated proteins are transferred to a membrane and probed.)

In test [2] the test system is JAK2. The test is described as follows: Western blot assay, JAK2 protein degradation. The conditions noted are these: MHH-CALL-4 cells, vehicle control = 100%. The procedure, abridged:
(§2)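 MHH-CALL-4 cells were lysed in RIPA buffer with protease inhibitors, and 10-20 μg total protein per lane was resolved on 4%-12% Bis-Tris gels and immunoblotted. Target band signal was normalized to ACBT and expressed relative to vehicle control set at 100%.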

Test [3] deals with T2, GSPT1 (Homo sapiens, UniProt P15170).
T2 construct: endogenous in cells; host or cells: MHH-CALL-4
T2 sequence (P15170 whole entry): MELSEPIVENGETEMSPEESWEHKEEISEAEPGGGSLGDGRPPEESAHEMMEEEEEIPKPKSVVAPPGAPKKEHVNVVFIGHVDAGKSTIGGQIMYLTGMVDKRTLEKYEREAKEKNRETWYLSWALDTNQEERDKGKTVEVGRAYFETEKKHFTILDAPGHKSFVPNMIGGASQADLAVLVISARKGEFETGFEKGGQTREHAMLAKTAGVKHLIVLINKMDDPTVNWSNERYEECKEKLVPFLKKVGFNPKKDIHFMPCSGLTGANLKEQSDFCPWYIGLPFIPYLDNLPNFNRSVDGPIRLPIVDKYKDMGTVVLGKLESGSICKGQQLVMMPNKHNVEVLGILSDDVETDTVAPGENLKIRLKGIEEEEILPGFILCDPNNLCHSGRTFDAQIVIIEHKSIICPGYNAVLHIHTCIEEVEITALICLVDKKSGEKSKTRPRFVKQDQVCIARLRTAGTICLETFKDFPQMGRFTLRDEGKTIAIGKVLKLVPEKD
The test is described as follows: Western blot assay, GSPT1 neosubstrate degradation. The conditions noted are these: MHHCALL4; 100 nM, 24 h; MHH-CALL-4 cells; vehicle control = 100%. The procedure, abridged:
as §2

Test [4] has as its system MHH-CALL-4 cells. The test is described as follows: Cytotoxicity assay (resazurin, 72 hours). Also on record: AUC: unit not given beside the values. The conditions noted are these: for EC50: MHHCALL4, resazurin; for AUC: area under the dose-response curve. The procedure, abridged:
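Cells grown in RPMI1640 with 10% FBS, 2×10⁵ per well, were exposed to pin-transferred compounds in triplicate for 72 h at 37 °C, 5% CO2. Viability was read after 4 h resazurin incubation. Dose-response AUC was calculated per compound; selected data were fitted by non-linear regression.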
Background: The colour change of resazurin is a common sign of viable cells or microbes.

In test [5] the target is T3, JAK3 (Homo sapiens, UniProt P52333).
T3 construct: endogenous in cells; host or cells: MHH-CALL-4
T3 sequence (P52333 1-1124): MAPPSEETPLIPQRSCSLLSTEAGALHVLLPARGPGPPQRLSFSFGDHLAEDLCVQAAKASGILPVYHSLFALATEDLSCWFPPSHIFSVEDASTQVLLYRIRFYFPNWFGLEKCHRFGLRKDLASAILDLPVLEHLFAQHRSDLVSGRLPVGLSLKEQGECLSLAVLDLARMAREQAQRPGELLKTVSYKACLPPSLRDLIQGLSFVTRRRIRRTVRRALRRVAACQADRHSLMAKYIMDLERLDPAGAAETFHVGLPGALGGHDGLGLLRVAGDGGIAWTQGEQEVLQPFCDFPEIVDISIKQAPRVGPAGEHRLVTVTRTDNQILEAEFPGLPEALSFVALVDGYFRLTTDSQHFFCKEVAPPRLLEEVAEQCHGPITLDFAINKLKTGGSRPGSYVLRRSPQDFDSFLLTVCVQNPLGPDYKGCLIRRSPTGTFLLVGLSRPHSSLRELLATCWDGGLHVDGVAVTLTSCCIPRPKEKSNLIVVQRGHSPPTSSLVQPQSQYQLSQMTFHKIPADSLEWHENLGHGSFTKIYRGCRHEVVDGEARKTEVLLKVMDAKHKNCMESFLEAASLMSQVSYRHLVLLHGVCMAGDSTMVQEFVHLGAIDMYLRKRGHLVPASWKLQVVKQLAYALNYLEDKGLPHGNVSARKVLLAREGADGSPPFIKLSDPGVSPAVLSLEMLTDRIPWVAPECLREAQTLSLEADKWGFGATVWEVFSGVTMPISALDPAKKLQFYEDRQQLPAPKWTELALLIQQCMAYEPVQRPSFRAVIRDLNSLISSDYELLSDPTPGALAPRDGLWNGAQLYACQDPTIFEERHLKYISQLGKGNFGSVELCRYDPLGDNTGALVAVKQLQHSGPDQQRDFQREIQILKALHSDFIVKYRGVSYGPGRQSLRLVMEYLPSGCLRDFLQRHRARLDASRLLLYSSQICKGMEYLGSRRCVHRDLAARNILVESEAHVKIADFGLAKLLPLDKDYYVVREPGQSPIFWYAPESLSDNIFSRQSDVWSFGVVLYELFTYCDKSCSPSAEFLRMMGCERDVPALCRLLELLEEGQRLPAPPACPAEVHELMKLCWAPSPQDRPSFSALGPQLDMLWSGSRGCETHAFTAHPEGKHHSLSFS
Briefly: Western blot assay, JAK3 protein degradation. Conditions: MHHCALL4; 100 nM, 24 h; MHH-CALL-4 cells; vehicle control = 100%; read-out: Target Protein Degradation (% remaining at 100 nM, 24 h) JAK3. As for the experimental part:
as §1

T1 sequence (P23458 whole entry): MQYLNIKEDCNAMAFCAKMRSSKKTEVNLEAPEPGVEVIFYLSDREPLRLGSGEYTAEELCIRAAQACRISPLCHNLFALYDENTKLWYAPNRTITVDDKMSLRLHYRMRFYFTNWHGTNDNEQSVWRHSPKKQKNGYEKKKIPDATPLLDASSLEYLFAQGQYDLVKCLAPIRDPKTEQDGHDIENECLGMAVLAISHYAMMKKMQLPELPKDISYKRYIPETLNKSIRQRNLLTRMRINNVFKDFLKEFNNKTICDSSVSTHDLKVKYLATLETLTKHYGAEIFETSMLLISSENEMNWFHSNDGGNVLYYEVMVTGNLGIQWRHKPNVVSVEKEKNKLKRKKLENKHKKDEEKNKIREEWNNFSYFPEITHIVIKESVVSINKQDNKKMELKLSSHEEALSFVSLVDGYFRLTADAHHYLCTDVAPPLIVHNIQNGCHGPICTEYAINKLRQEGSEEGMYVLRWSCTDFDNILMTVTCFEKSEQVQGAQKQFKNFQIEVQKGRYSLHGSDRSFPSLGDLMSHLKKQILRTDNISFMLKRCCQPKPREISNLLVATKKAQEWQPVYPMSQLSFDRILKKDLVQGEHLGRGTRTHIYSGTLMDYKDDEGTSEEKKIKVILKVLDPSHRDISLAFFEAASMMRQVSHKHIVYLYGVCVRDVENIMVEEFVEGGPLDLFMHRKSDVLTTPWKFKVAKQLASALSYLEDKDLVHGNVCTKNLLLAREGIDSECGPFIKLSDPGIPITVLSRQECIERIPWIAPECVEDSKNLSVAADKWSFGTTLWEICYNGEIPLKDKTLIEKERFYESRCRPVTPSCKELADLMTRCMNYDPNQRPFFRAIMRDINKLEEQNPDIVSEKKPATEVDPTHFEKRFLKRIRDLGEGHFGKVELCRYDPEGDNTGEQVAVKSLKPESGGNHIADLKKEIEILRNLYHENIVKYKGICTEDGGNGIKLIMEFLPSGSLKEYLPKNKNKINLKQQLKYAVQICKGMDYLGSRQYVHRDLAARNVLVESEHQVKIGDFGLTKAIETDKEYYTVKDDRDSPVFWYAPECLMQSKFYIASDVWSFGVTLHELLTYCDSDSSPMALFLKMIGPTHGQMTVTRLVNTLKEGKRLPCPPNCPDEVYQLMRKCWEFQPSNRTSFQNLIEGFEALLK

On to `N#CC[C@H](C1CCCC1)n1cc(-c2nc(Nc3ccc(C(=O)NCCCCOc4ccc(C5CCC(=O)NC5=O)cc4)cc3)nc3[nH]ccc23)cn1` (stereo partly drawn) [Compound 36], for which the “Target Protein Degradation (% remaining at 100 nM, 24 h) JAK1” value in test [1] is 118 % remaining. In addition, in test [2], the “Target Protein Degradation (% remaining at 100 nM, 24 h) JAK2” value is reported as 32 % remaining. The remaining activity at 0.1 µM in test [3] turned out to be 94%. For the same compound, in test [4], the 50% effective concentration (EC50) was 5.4 nM and the AUC turned out to be 129. Further, the remaining activity at 0.1 µM in test [5] came out at 63%.
As for `CCCn1cc(-c2nc(Nc3ccc(C(=O)NCCN4CCN(c5ccc6c(c5)C(=O)N(C5CCC(=O)NC5=O)C6=O)CC4)cc3)nc3[nH]ccc23)cn1` (stereo not drawn) [Compound 39, N-(2-(4-(2-(2,6-dioxopiperidin-3-yl)-1,3-dioxoisoindolin-5-yl)piperazin-1-yl)ethyl)-4-((4-(1-propyl-1H-pyrazol-4-yl)-7H-pyrrolo[2,3-d]pyrimidin-2-yl)amino)benzamide], in test [1], the “Target Protein Degradation (% remaining at 100 nM, 24 h) JAK1” value is given as 126 % remaining. Further, the “Target Protein Degradation (% remaining at 100 nM, 24 h) JAK2” value in test [2] is given as 61 % remaining. The compound further gave a remaining activity at 0.1 µM in test [3] of 84%. Besides, in test [4], the EC50 is 33.1 nM and the AUC stood at 221. In addition, the remaining activity at 0.1 µM in test [5] came out at 53%.
In the case of `CCS(=O)(=O)N1CC(CC#N)(n2cc(-c3nc(Nc4ccc(C(=O)NCCN5CCN(c6cccc(C7CCC(=O)NC7=O)c6)CC5)cc4)nc4[nH]ccc34)cn2)C1` (stereo not drawn) [Compound 40, 4-((4-(1-(3-(cyanomethyl)-1-(ethylsulfonyl)azetidin-3-yl)-1H-pyrazol-4-yl)-7H-pyrrolo[2,3-d]pyrimidin-2-yl)amino)-N-(2-(4-(3-(2,6-dioxopiperidin-3-yl)phenyl)piperazin-1-yl)ethyl)benzamide], the “Target Protein Degradation (% remaining at 100 nM, 24 h) JAK1” value in test [1] is 114 % remaining. Besides, the “Target Protein Degradation (% remaining at 100 nM, 24 h) JAK2” value in test [2] is reported as 36 % remaining. Further, the remaining activity at 0.1 µM in test [3] came out at 88%; in test [5], 56%. Also, in test [4], the EC50 was found to be 1.9 nM. Moreover, in test [4], the AUC was 139.
On to `CCS(=O)(=O)N1CC(CC#N)(n2cc(-c3nc(Nc4ccc(C(=O)NCCCN5CCN(c6cccc(C7CCC(=O)NC7=O)c6)CC5)cc4)nc4[nH]ccc34)cn2)C1` (stereo not drawn) [Compound 42, 4-((4-(1-(3-(cyanomethyl)-1-(ethylsulfonyl)azetidin-3-yl)-1H-pyrazol-4-yl)-7H-pyrrolo[2,3-d]pyrimidin-2-yl)amino)-N-(3-(4-(3-(2,6-dioxopiperidin-3-yl)phenyl)piperazin-1-yl)propyl)benzamide], for which the “Target Protein Degradation (% remaining at 100 nM, 24 h) JAK1” value in test [1] is given as 128 % remaining. Further, the “Target Protein Degradation (% remaining at 100 nM, 24 h) JAK2” value in test [2] is on record as 48 % remaining. Besides, the remaining activity at 0.1 µM in test [3] stood at 76%; in test [5], 71%. In addition, the EC50 in test [4] was determined as 836 nM. Further, the AUC in test [4] came to 139.
`CCS(=O)(=O)N1CC(CC#N)(n2cc(-c3nc(Nc4ccc(C(=O)N5CCC(CN6CCN(c7ccc(C8CCC(=O)NC8=O)cc7)CC6)CC5)cc4)nc4[nH]ccc34)cn2)C1` (stereo not drawn) [Compound 49, 2-(3-(4-(2-((4-(4-((4-(4-(2,6-dioxopiperidin-3-yl)phenyl)piperazin-1-yl)methyl)piperidine-1-carbonyl)phenyl)amino)-7H-pyrrolo[2,3-d]pyrimidin-4-yl)-1H-pyrazol-1-yl)-1-(ethylsulfonyl)azetidin-3-yl)acetonitrile]: the “Target Protein Degradation (% remaining at 100 nM, 24 h) JAK1” value in test [1] worked out at 59 % remaining. Besides, the “Target Protein Degradation (% remaining at 100 nM, 24 h) JAK2” value in test [2] worked out at 13 % remaining. The same compound showed a remaining activity at 0.1 µM in test [3] of 74%. In test [4], the concentration for a half-maximal effect (EC50) came to 4 nM and the AUC amounted to 199. Also, in test [5], the remaining activity at 0.1 µM was determined as 11%.
